One may read the IC50 as the concentration that inhibits the measured activity by half.

Structures are written as SMILES. The source made the active and inactive calls. The calls are words filed in the database; no cut-off is given here.

The nature of data set [1]: Cytotoxicity against human Rh4 cells transfected with CMV-Luc construct assessed as inhibition of cell growth at 100 uM by luciferase assay. Type of data set: toxicity, cell-based. The following applies: rh4, 100 µM.
The target in the next data set is PAX3/FOXO1 (Homo sapiens, UniProt P23760+Q12778). Put plainly: Inhibition of PAX3-FOXO1 driven transcriptional activity in human Rh4 cells transfected with ALK-Luc construct incubated for 24 hrs by luciferase assay. The format is cell-based.
Chain of PAX3/FOXO1 (Q12778 whole entry): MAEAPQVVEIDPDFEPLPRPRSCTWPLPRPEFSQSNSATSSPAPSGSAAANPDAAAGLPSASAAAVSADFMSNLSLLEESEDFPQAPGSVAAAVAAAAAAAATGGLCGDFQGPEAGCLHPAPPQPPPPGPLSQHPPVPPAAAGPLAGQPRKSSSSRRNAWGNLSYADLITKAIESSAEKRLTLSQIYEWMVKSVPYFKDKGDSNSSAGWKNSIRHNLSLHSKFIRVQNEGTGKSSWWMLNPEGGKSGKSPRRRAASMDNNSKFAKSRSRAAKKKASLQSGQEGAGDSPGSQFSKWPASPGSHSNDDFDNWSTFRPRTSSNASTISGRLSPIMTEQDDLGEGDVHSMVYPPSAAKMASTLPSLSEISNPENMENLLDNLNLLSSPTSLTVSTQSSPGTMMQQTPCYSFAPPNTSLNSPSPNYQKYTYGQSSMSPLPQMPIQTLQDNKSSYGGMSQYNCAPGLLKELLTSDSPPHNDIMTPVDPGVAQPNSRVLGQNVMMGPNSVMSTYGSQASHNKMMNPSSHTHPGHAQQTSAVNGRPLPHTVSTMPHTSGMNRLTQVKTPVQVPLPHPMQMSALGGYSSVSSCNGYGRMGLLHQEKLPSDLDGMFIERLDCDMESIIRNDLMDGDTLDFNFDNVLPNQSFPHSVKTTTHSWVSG
Chain of PAX3/FOXO1 (P23760 whole entry): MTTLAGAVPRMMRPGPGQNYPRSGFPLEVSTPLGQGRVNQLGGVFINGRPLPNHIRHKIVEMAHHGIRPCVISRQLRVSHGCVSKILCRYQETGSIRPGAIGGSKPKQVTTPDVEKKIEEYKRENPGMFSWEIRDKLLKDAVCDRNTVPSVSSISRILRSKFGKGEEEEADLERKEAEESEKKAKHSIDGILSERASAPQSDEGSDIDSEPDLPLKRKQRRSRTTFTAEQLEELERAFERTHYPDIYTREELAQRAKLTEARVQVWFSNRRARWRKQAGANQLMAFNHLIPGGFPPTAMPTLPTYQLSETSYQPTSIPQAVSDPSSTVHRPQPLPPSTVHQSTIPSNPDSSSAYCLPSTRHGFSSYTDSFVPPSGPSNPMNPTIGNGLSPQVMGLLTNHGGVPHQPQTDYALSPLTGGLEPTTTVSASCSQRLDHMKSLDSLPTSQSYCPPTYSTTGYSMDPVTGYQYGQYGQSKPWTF
In another data set the test system is Rh4. Put plainly: Upregulation of TNF gene expression in human Rh4 cells. The format is functional, cell-based.
The target of data set [2] is T1, PAX3/FOXO1 (Homo sapiens) (UniProt Q12778+P23760). Put plainly: Inhibition of PAX3-FOXO1 driven transcriptional activity in human Rh4 cells assessed as upregulation of DGKD gene expression at 20 uM incubated for 6 hrs by GSEA analysis. Type of data set: cell-based.
T1 sequence (P23760 whole entry, looked up): as the sequence (P23760 whole entry) above
T1 sequence (Q12778 whole entry, looked up): as the sequence (Q12778 whole entry) above
Data set [3] has as its target T1, PAX3/FOXO1 (Homo sapiens). Put plainly: Inhibition of PAX3-FOXO1 driven transcriptional activity in human Rh4 cells assessed as upregulation of SOX9 gene expression at 20 uM incubated for 6 hrs by GSEA analysis. Type of data set: cell-based.
Data set [4] deals with T1, PAX3/FOXO1 (Homo sapiens). The experiment in a line: Inhibition of PAX3-FOXO1 driven transcriptional activity in human Rh4 cells assessed as upregulation of BCL2L1 gene expression at 20 uM incubated for 6 hrs by GSEA analysis. The format is cell-based.
The target in data set [5] is T1, PAX3/FOXO1 (Homo sapiens). Put plainly: Inhibition of PAX3-FOXO1 driven transcriptional activity in human Rh4 cells assessed as upregulation of TIMP3 gene expression at 20 uM incubated for 6 hrs by GSEA analysis. The format is cell-based.
In data set [6] the target is T1, PAX3/FOXO1 (Homo sapiens). The experiment in a line: Inhibition of PAX3-FOXO1 driven transcriptional activity in human Rh4 cells assessed as upregulation of EPHA2 gene expression at 20 uM incubated for 6 hrs by GSEA analysis. Type of data set: cell-based.
Data set [7] addresses T1, PAX3/FOXO1 (Homo sapiens). The experiment in a line: Inhibition of PAX3-FOXO1 driven transcriptional activity in human Rh4 cells assessed as upregulation of ID1 gene expression at 20 uM incubated for 6 hrs by GSEA analysis. The format is cell-based.
In data set [8] the target is T1, PAX3/FOXO1 (Homo sapiens). Put plainly: Inhibition of PAX3-FOXO1 driven transcriptional activity in human Rh4 cells assessed as upregulation of KIT gene expression at 20 uM incubated for 6 hrs by GSEA analysis. The format is cell-based.
Data set [9] concerns the target T1, PAX3/FOXO1 (Homo sapiens). The experiment in a line: Inhibition of PAX3-FOXO1 driven transcriptional activity in human Rh4 cells assessed as upregulation of TNFRSF12A gene expression at 20 uM incubated for 6 hrs by GSEA analysis. The format is cell-based.
Data set [10] has as its target T1, PAX3/FOXO1 (Homo sapiens). Put plainly: Inhibition of PAX3-FOXO1 driven transcriptional activity in human Rh4 cells assessed as upregulation of IL-11 gene expression at 20 uM incubated for 6 hrs by GSEA analysis. The format is cell-based.
Data set [11] concerns the target T1, PAX3/FOXO1 (Homo sapiens). Put plainly: Inhibition of PAX3-FOXO1 driven transcriptional activity in human Rh4 cells assessed as upregulation of SERPINE1 gene expression at 20 uM incubated for 6 hrs by GSEA analysis. Type of data set: cell-based.
For data set [12], the target named is T1, PAX3/FOXO1 (Homo sapiens). The experiment in a line: Inhibition of PAX3-FOXO1 driven transcriptional activity in human Rh4 cells assessed as upregulation of VEGFA gene expression at 20 uM incubated for 6 hrs by GSEA analysis. The format is cell-based.
The target of data set [13] is T1, PAX3/FOXO1 (Homo sapiens). Put plainly: Inhibition of PAX3-FOXO1 driven transcriptional activity in human Rh4 cells assessed as upregulation of GADD45B gene expression at 20 uM incubated for 6 hrs by GSEA analysis. Type of data set: cell-based.
Data set [14] has as its target T1, PAX3/FOXO1 (Homo sapiens). The experiment in a line: Inhibition of PAX3-FOXO1 driven transcriptional activity in human Rh4 cells assessed as upregulation of LBH gene expression at 20 uM incubated for 6 hrs by GSEA analysis. Type of data set: cell-based.
In data set [15] the target is T1, PAX3/FOXO1 (Homo sapiens). Put plainly: Inhibition of PAX3-FOXO1 driven transcriptional activity in human Rh4 cells assessed as upregulation of KLF10 gene expression at 20 uM incubated for 6 hrs by GSEA analysis. The format is cell-based.

As for `CC(C)C(=O)Nc1nc2c([nH]1)C(C)c1[nH]c(NC(=O)c3ccccc3)nc1CC2` (stereo unspecified), the Activity result in data set [1] is given as “Toxic”. Further, half-maximal inhibition on PAX3/FOXO1 (IC50) required 67 µM.
Regarding `CC1c2[nH]c(NC(=O)c3ccccc3)nc2CCc2nc(NC(=O)c3ccccc3)[nH]c21`, the Activity entry in [1] was “Toxic”. In addition, on PAX3/FOXO1, the IC50 was determined as 13 µM. Moreover, the result in the data set on Rh4 was Active.
As for `CC(C)=CC(=O)Nc1nc2c([nH]1)C(C)c1[nH]c(NC(=O)c3ccccc3)nc1CC2` (stereo unspecified), in data set [1], the Activity entry is reported as “Toxic”. For the same compound, the IC50 against PAX3/FOXO1 is 17 µM. Also, the inhibition entry in [2], in data set [3], in data set [4], in data set [5], in data set [6] and in data set [7] was “Active” in each case. Moreover, the inhibition entry in data set [8], in data set [9], in data set [10], in [11], in data set [12] and in data set [13] was “Active” each time. The inhibition result in [14] and in [15] was “Active” each time. For the same compound, the result in the data set on Rh4 was Active.
As to `CC[C@H](C)C(=O)Nc1nc2c([nH]1)C(C)c1[nH]c(NC(=O)/C=C/c3ccccc3)nc1CC2` (stereo partly specified), the Activity result in data set [1] is “Toxic”. In addition, the IC50 against PAX3/FOXO1 came out at 42 µM.
On to `CC[C@H](C)C(=O)Nc1nc2c([nH]1)C(C)c1[nH]c(NC(=O)c3ccccc3)nc1CC2` (stereo partly specified), for which the Activity result in data set [1] is “Toxic”. The IC50 against PAX3/FOXO1 is 26 µM.

The values above are taken from ChEMBL document CHEMBL5126553, “Dentithecamides A-H, Diacylated Zoanthoxanthin Derivatives with PAX3-FOXO1 Inhibitory Activity from the Hydroid Dentitheca habereri” (J Nat Prod, 2022).
